Measured values reported in patent publication US20050054667A1, “Method of treating or inhibiting anti-arrhythmic events in male human patients” (Solvay Pharmaceuticals GmbH, priority 2003, published 2005).

Key:
[1] = system: human patients with atrial fibrillation; assay: Phase II clinical study: conversion of recent onset atrial fibrillation to normal sinus rhythm (NSR) by intravenous tedisamil; type: in vivo; conditions: ITT sample, DC cardioversion excluded
Experimental: (§1) This first clinical study in humans was a Multi-Center, Double-Blind, Randomized, Placebo-Controlled, Sequential Ascending Dose Groups Study to evaluate the Efficacy and Safety of Intravenous Tedisamil in the Rapid Conversion to Normal Sinus Rhythm in Patients with Atrial Fibrillation or Flutter. The active ingredient used was tedisamil dihydrochloride. The study was designed as a phase II study and executed in 35 to 40 centers in 3 to 4 countries. Study duration: Screening: up to 48 hours; treatment (in-patient): single 30-minute infusion; safety follow up: 24 hours (in-patient) with continuous telemetry and 28 day safety follow up.
(§2) Secondary efficacy objectives were to determine the percentage of human patients remaining in sinus rhythm at 2.5 hours after initiation of the intravenous infusion of tedisamil versus placebo; to determine the percentage of human patients remaining in sinus rhythm at 24 hours after initiation of the intravenous infusion of tedisamil versus placebo; to determine the time to conversion after the start of the infusion of tedisamil versus placebo; and to determine the dose- and plasma concentration-response relationships of tedisamil versus placebo. Safety objective: determining the safety and tolerability of tedisamil versus placebo.
(§3) The following methodology for the study in humans was applied: A multi-center, double-blind, randomized, placebo-controlled, sequential ascending dose groups study to evaluate the efficacy and safety of intravenous tedisamil versus placebo. The study drug was infused over 30 minutes, receiving half the dose within 10 minutes and half the dose within the remaining 20 minutes The first patient group received 0.4 mg/kg of body weight, infused as 0.2 mg/kg of body weight within 10 minutes, continued with 0.2 mg/kg of body weight infused within 20 minutes. The next higher dose 0.6 mg/kg of body weight (0.3 mg/kg of body weight infused over 10 min, continued with 0.3 mg/kg of body weight infused over 20 minutes) was only administered after the initial dose has been assessed (blinded) and found to be safe. A third stage may be added with a higher dose. Tedisamil blood concentrations were assessed during the infusion (at 10 and 30 minutes), at conversion to normal sinus rhythm, at recurrence and 24 hours after start of infusion.
(§4) The criteria for patient inclusion in the study was atrial fibrillation or flutter with a duration of more than 3 hours and less than 48 hours, occurring as a first or recurrent episode.
(§5) • Tedisamil (0.4 mg/kg body weight) • Tedisamil (0.6 mg/kg body weight) Both dosages were given as an intravenous regimen. Reference Therapy, Dose and Mode of Administration:
(§6) The total infusion time is 30 minutes, with half the dose infused within 10 minutes, and half the dose infused within the remaining 20 minutes.
(§7) Primary efficacy: the percentage of human patients converted to normal sinus rhythm (for at least 60 seconds) at any time within 2.5 hours after the initiation of the infusion of study drug.
(§8) All efficacy variables were evaluated separately for human patients with atrial fibrillation and human patients with atrial flutter. Percentages of conversion were compared among treatment groups using a logistic regression model with factors for treatment group and center. Times to conversion were compared among treatment groups using a Cox proportional hazards model with factors for treatment group and center. Dose-response and concentration-response relationships were examined using descriptive statistics.

[2] = system: human patients with atrial flutter; assay: Phase II clinical study: conversion of atrial flutter to normal sinus rhythm (NSR) by intravenous tedisamil; type: in vivo; conditions: ITT sample, DC cardioversion excluded
Experimental: as §1, §2, §3, §4
• Tedisamil (0.4 mg/kg body weight) • Tedisamil (0.6 mg/kg body weight) Both dosages were given as an intravenous regimen. Reference Therapy, Dose and Mode of Administration: […]
All efficacy variables were evaluated separately for human patients with atrial fibrillation and human patients with atrial flutter. […]

[3] = system: Patients with Atrial Fibrillation or Flutter; assay: Phase II clinical study: conversion to NSR, overall (atrial fibrillation or flutter); type: in vivo, human; conditions: for Conversion to NSR at any time within 2.5 hrs after start of infusion: Overall (fibrillation + flutter), ITT sample, DC cardioversion excluded
Experimental: as §1, §2, §3, §4, §5, §6, §7, §8

human patients = assay: Clinical safety and tolerability of intravenous tedisamil (TdP, safety issues); type: in vivo
Experimental: as §2
Physical examination, ECG, 24-hour Holter monitoring, vital signs, laboratory evaluations and adverse events.

[4] = system: Subjects with Recent Onset Atrial Fibrillation or Flutter; assay: Phase III clinical study: rapid conversion to NSR by intravenous tedisamil sesquifumarate; type: in vivo, human; conditions: active ingredient tedisamil sesquifumarate
Experimental: This second clinical study in humans was a Multi-Center, Double-Blind, Randomized, Placebo-Controlled, Parallel Design Study to evaluate the Efficacy and Safety of Intravenous Tedisamil Sesquifumarate in the Rapid Conversion to Normal Sinus Rhythm in Subjects with Recent Onset Atrial Fibrillation or Flutter.
The active ingredient used was tedisamil sesqifumarate. […] Study duration: Screening: up to 48 hours; treatment (in-patient): single 30-minute infusion; safety follow up: 24 hours (in-patient) with continuous telemetry and 28 day safety follow up. […]

[5] = female, 0.4 mg/kg i.v. 30-min infusion
[6] = female, 0.6 mg/kg i.v. 30-min infusion
[7] = male, 0.4 mg/kg i.v. 30-min infusion
[8] = male, 0.6 mg/kg i.v. 30-min infusion

SMILES: C1CCC2(C1)C1CN(CC3CC3)CC2CN(CC2CC2)C1 [Tedisamil, N,N′-dicyclopropyl-methyl-9,9-tetramethylen-3,7-diazabicyclo[3,3,1]nonane]
- Conversion to NSR at any time within 2.5 hrs after start of infusion [1, 5]: 6/17 (35.3%)
- Conversion to NSR at any time within 2.5 hrs after start of infusion [1, 6]: 6/16 (37.5%)
- Conversion to NSR at any time within 2.5 hrs after start of infusion ([1]; female, age <65 yrs, 0.4 mg/kg i.v.): 2/5 (40.0%)
- Conversion to NSR at any time within 2.5 hrs after start of infusion ([1]; female, age <65 yrs, 0.6 mg/kg i.v.): 1/3 (33.3%)
- Conversion to NSR at any time within 2.5 hrs after start of infusion ([1]; female, age >=65 yrs, 0.4 mg/kg i.v.): 4/12 (33.3%)
- Conversion to NSR at any time within 2.5 hrs after start of infusion ([1]; female, age >=65 yrs, 0.6 mg/kg i.v.): 5/13 (38.5%)
- Conversion to NSR at any time within 2.5 hrs after start of infusion [1, 7]: 18/35 (51.4%)
- Conversion to NSR at any time within 2.5 hrs after start of infusion [1, 8]: 18/26 (69.2%)
- Conversion to NSR at any time within 2.5 hrs after start of infusion ([1]; male, age <65 yrs, 0.4 mg/kg i.v.): 10/20 (50.0%)
- Conversion to NSR at any time within 2.5 hrs after start of infusion ([1]; male, age <65 yrs, 0.6 mg/kg i.v.): 13/18 (72.2%)
- Conversion to NSR at any time within 2.5 hrs after start of infusion ([1]; male, age >=65 yrs, 0.4 mg/kg i.v.): 8/15 (51.4%)
- Conversion to NSR at any time within 2.5 hrs after start of infusion ([1]; male, age >=65 yrs, 0.6 mg/kg i.v.): 5/8 (62.5%)
- Conversion to NSR at any time within 2.5 hrs after start of infusion (patients converted/total) ([2]; female, 0.4 mg/kg i.v. 30-min infusion, percentage not given): 0/2
- Conversion to NSR at any time within 2.5 hrs after start of infusion [2, 6]: 2/6 (33.3%)
- Conversion to NSR at any time within 2.5 hrs after start of infusion [2, 7]: 1/7 (14.3%)
- Conversion to NSR at any time within 2.5 hrs after start of infusion [2, 8]: 1/5 (20.0%)
- Effect of extension of infusion on conversion rates ([3]; Extension of infusion beyond the times indicated (30 minutes)): did not produce higher conversion rates
- Gender difference related to efficacy (conversion rate, male vs female patients) ([3]; First (Phase II) study, active ingredient tedisamil dihydrochloride): higher conversion rate compared to women
- Conversion to NSR at any time within 2.5 hrs after start of infusion [3, 5]: 6/19 (31.6%)
- Conversion to NSR at any time within 2.5 hrs after start of infusion [3, 6]: 8/22 (36.4%)
- Conversion to NSR at any time within 2.5 hrs after start of infusion [3, 7]: 19/42 (45.2%)
- Conversion to NSR at any time within 2.5 hrs after start of infusion [3, 8]: 19/31 (61.3%)
- Observed TdP (Torsade de Point), distribution by gender (human patients; 30 min infusion regimen): Almost all observed TdP (Torsade de Point) in 30 min regimen were in female human patients
- Safety issues, male vs female patients (human patients; First (Phase II) study): fewer safety issues than female human patients
- TdP in male human patients (human patients; high dosage on 0.72 in 3114 study): Only one human patient showed TdP
- Gender difference related to efficacy (conversion rate, male vs female patients) [4]: higher conversion rate compared to women
